Columns and labels:
Assay in all cases: In vitro antibacterial activity, agar dilution MIC
Type in all cases: cell-based
[1] = system: Streptococcus pyogenes EES61; conditions: Streptococcus pyogenes EES61 (organism code LL); BHI agar, 35-37 °C, 20 to 24 hours; unit assumed
Method: (§1) Representative compounds of the present invention were assayed in vitro for antibacterial activity as follows: Twelve petri dishes containing successive aqueous dilutions of the test compound mixed with 10 mL of sterilized Brain Heart infusion (BHI) agar (Difco 0418-01-5) were prepared. Each plate was inoculated with 1:100 (or 1:10 for slow-growing strains, such as Micrococcus and Streptococcus) dilutions of up to 32 different microorganisms, using a Steers replicator block. […] In addition, a control plate, using BHI agar containing no test compound, was prepared and incubated at the beginning and end of each test.
(§2) An additional plate containing a compound having known susceptibility patterns for the organisms being tested and belonging to the same antibiotic class as the test compound was also prepared and incubated as a further control, as well as to provide test-to-test comparability.
(§3) After incubation, each plate was visually inspected. The minimum inhibitory concentration (MIC) was defined as the lowest concentration of drug yielding no growth, a slight haze, or sparsely isolated colonies on the inoculum spot as compared to the growth control.

[2] = system: Staphylococcus aureus A-5278; conditions: Staphylococcus aureus A-5278 (organism code CC); BHI agar, 35-37 °C, 20 to 24 hours; unit assumed
Method: as §1, §2, §3

[3] = system: Micrococcus luteus ATCC 4698; conditions: Micrococcus luteus ATCC 4698 (organism code PP); BHI agar, 35-37 °C, 20 to 24 hours; unit assumed
Method: as §1, §2, §3

Candida albicans CCH 442 = Candida albicans CCH 442 (organism code TT); BHI agar, 35-37 °C, 20 to 24 hours; unit assumed
Method: as §1, §2, §3

[4] = system: Micrococcus luteus ATCC 9341; conditions: Micrococcus luteus ATCC 9341 (organism code OO); BHI agar, 35-37 °C, 20 to 24 hours; unit assumed
Method: as §1, §2, §3

[5] = system: Staphylococcus aureus CMX 642A; conditions: Staphylococcus aureus CMX 642A (organism code DD); BHI agar, 35-37 °C, 20 to 24 hours; unit assumed
Method: as §1, §2, §3

Escherichia coli SS = Escherichia coli SS (organism code RR); BHI agar, 35-37 °C, 20 to 24 hours; unit assumed
Method: as §1, §2, §3

[6] = system: Streptococcus agalactiae CMX 508; conditions: Streptococcus agalactiae CMX 508 (organism code KK); BHI agar, 35-37 °C, 20 to 24 hours; unit assumed
Method: as §1, §2, §3

[7] = system: Nocardia Asteroides ATCC9970; conditions: Nocardia Asteroides ATCC9970 (organism code VV); BHI agar, 35-37 °C, 20 to 24 hours; unit assumed
Method: as §1, §2, §3

[8] = system: Mycobacterium smegmatis ATCC 114; conditions: Mycobacterium smegmatis ATCC 114 (organism code UU); BHI agar, 35-37 °C, 20 to 24 hours; unit assumed
Method: as §1, §2, §3

[9] = system: Streptococcus pyogenes 930; conditions: Streptococcus pyogenes 930 (organism code MM); BHI agar, 35-37 °C, 20 to 24 hours; unit assumed
Method: as §1, §2, §3

[10] = system: Haemophilis Influenzae DILL AMP R; conditions: Haemophilis Influenzae DILL AMP R (organism code WW); BHI agar, 35-37 °C, 20 to 24 hours; unit assumed
Method: as §1, §2, §3

[11] = system: Streptococcus Pheumoniae 5979; conditions: Streptococcus Pheumoniae 5979 (organism code ZZ); BHI agar, 35-37 °C, 20 to 24 hours; unit assumed
Method: as §1, §2, §3

[12] = system: Streptococcus Pheumoniae ATCC6303; conditions: Streptococcus Pheumoniae ATCC6303 (organism code XX); BHI agar, 35-37 °C, 20 to 24 hours; unit assumed
Method: as §1, §2, §3

Escherichia coli JUHL = Escherichia coli JUHL (organism code QQ); BHI agar, 35-37 °C, 20 to 24 hours; unit assumed
Method: as §1, §2, §3

[13] = system: Staphylococcus aureus CMX 553; conditions: Staphylococcus aureus CMX 553 (organism code FF); BHI agar, 35-37 °C, 20 to 24 hours; unit assumed
Method: as §1, §2, §3

[14] = system: Staphylococcus epidermidis 3519; conditions: Staphylococcus epidermidis 3519 (organism code HH); BHI agar, 35-37 °C, 20 to 24 hours; unit assumed
Method: as §1, §2, §3

[15] = system: Streptococcus bovis A-5169; conditions: Streptococcus bovis A-5169 (organism code JJ); BHI agar, 35-37 °C, 20 to 24 hours; unit assumed
Method: as §1, §2, §3

[16] = system: Streptococcus Pheumoniae 5649; conditions: Streptococcus Pheumoniae 5649 (organism code ZZA); BHI agar, 35-37 °C, 20 to 24 hours; unit assumed
Method: as §1, §2, §3

[17] = system: Streptococcus Pheumoniae GYR 1171; conditions: Streptococcus Pheumoniae GYR 1171 (organism code YY); BHI agar, 35-37 °C, 20 to 24 hours; unit assumed
Method: as §1, §2, §3

[18] = system: Staphylococcus aureus A5177; conditions: Staphylococcus aureus A5177 (organism code BB); BHI agar, 35-37 °C, 20 to 24 hours; unit assumed
Method: as §1, §2, §3

[19] = system: Enterococcus faecium ATCC 8043; conditions: Enterococcus faecium ATCC 8043 (organism code II); BHI agar, 35-37 °C, 20 to 24 hours; unit assumed
Method: as §1, §2, §3

[20] = system: Staphylococcus aureus NCTC10649M; conditions: Staphylococcus aureus NCTC10649M (organism code EE); BHI agar, 35-37 °C, 20 to 24 hours; unit assumed
Method: as §1, §2, §3

[21] = system: Staphylococcus aureus ATCC 6538P; conditions: Staphylococcus aureus ATCC 6538P (organism code AA); BHI agar, 35-37 °C, 20 to 24 hours; unit assumed
Method: as §1, §2, §3

[22] = system: Staphylococcus aureus 1775; conditions: Staphylococcus aureus 1775 (organism code GG); BHI agar, 35-37 °C, 20 to 24 hours; unit assumed
Method: as §1, §2, §3

Escherichia coli DC-2 = Escherichia coli DC-2 (organism code SS); BHI agar, 35-37 °C, 20 to 24 hours; unit assumed
Method: as §1, §2, §3

[23] = system: Streptococcus pyogenes PIU 2548; conditions: Streptococcus pyogenes PIU 2548 (organism code NN); BHI agar, 35-37 °C, 20 to 24 hours; unit assumed
Method: as §1, §2, §3

| SMILES | MIC [1] | MIC [2] | MIC [3] | MIC (Candida albicans CCH 442) | MIC [4] | MIC [5] | MIC (Escherichia coli SS) | MIC [6] | MIC [7] | MIC [8] | MIC [11] | MIC [12] | MIC (Escherichia coli JUHL) | MIC [13] | MIC [14] | MIC [15] | MIC [16] | MIC [17] | MIC [18] | MIC [19] | also measured |
| --- | --- | --- | --- | --- | --- | --- | --- | --- | --- | --- | --- | --- | --- | --- | --- | --- | --- | --- | --- | --- | --- |
| CC[C@H]1OC(=O)[C@H](C)C(=O)[C@H](C)[C@@H](O[C@@H]2O[C@H](C)C[C@H](NC)[C@H]2OC(C)=O)[C@](C)(OCC=Cc2cnc3ccccc3c2)C[C@@H](C)C(=O)[C@H](C)[C@H]2NC(=O)O[C@@]21C [Example 2, Compound of formula (II), R is -CH2CH=CH-(3-quinolyl), R^p is acetyl, R^1 is H, R^2 is CH3, W is absent, R^w is H] | ≤ 0.005 µg/mL | > 100 µg/mL | 0.1 µg/mL | > 100 µg/mL | 0.02 µg/mL | 0.2 µg/mL | 0.39 µg/mL | ≤ 0.005 µg/mL | 1.56 µg/mL | 3.1 µg/mL | 128 µg/mL | 0.03 µg/mL | > 100 µg/mL | 0.2 µg/mL | 0.2 µg/mL | ≤ 0.005 µg/mL | 0.5 µg/mL | 0.03 µg/mL | 0.2 µg/mL | 0.05 µg/mL | MIC [9]: 25 µg/mL; MIC [10]: 16 µg/mL; MIC [20]: 0.2 µg/mL; MIC [21]: 0.2 µg/mL; MIC [22]: > 100 µg/mL; MIC (Escherichia coli DC-2): > 100 µg/mL; MIC [23]: 0.39 µg/mL |
| CC[C@H]1OC(=O)[C@H](C)C(=O)[C@H](C)[C@@H](O[C@@H]2O[C@H](C)C[C@H](NC)[C@H]2O)[C@](C)(OCC=Cc2cnc3ccccc3c2)C[C@@H](C)C(=O)[C@H](C)[C@H]2NC(=O)O[C@@]21C [Example 3, Compound of Formula (II); R is -CH2CH=CH-(3-quinolyl), R^p is H, W is absent, R^w is H, R^1 is H, R^2 is CH3-] | 0.01 µg/mL | > 100 µg/mL | 0.1 µg/mL | > 100 µg/mL | 0.02 µg/mL | 0.39 µg/mL | 0.78 µg/mL | 0.02 µg/mL | 3.1 µg/mL | 12.5 µg/mL | > 128 µg/mL | 0.03 µg/mL | > 100 µg/mL | 0.39 µg/mL | 0.39 µg/mL | 0.01 µg/mL | 0.5 µg/mL | 0.03 µg/mL | 0.2 µg/mL | 0.2 µg/mL | MIC [9]: 12.5 µg/mL; MIC [10]: 16 µg/mL; MIC [20]: 0.39 µg/mL; MIC [21]: 0.2 µg/mL; MIC [22]: > 100 µg/mL; MIC (Escherichia coli DC-2): > 100 µg/mL; MIC [23]: 0.39 µg/mL |
| CC[C@H]1OC(=O)[C@H](C)C(=O)[C@H](C)[C@@H](O[C@@H]2O[C@H](C)C[C@H](N(C)C(C)=O)[C@H]2O)[C@](C)(OCC=Cc2cnc3ccccc3c2)C[C@@H](C)C(=O)[C@H](C)[C@H]2NC(=O)O[C@@]21C [Example 4, Compound of Formula (II); R is -CH2CH=CH-(3-quinolyl), R^P is H, W is absent, R^w is H, R^1 is acetyl, R^2 is CH3-] | 0.39 µg/mL | > 100 µg/mL | 3.1 µg/mL | > 100 µg/mL | 0.39 µg/mL | 6.2 µg/mL | 100 µg/mL | 0.39 µg/mL | 12.5 µg/mL | 25 µg/mL | 128 µg/mL | 0.25 µg/mL | > 100 µg/mL | 6.2 µg/mL | 6.2 µg/mL | 0.2 µg/mL | 0.25 µg/mL | 0.125 µg/mL | 6.2 µg/mL | 1.56 µg/mL | MIC [10]: > 128 µg/mL; MIC [20]: 6.2 µg/mL; MIC [21]: 6.2 µg/mL; MIC [22]: > 100 µg/mL; MIC (Escherichia coli DC-2): > 100 µg/mL; MIC [23]: 1.56 µg/mL |
| CCOC(=O)CN(C)[C@H]1C[C@@H](C)O[C@@H](O[C@@H]2[C@@H](C)C(=O)[C@@H](C)C(=O)O[C@H](CC)[C@@]3(C)OC(=O)N[C@@H]3[C@@H](C)C(=O)[C@H](C)C[C@@]2(C)OCC=Cc2cnc3ccccc3c2)[C@@H]1O [Example 5, Compound of Formula (II); R is -CH2CH=CH-(3-quinolyl), R^p is H, W is absent, R^w is H, R^1 is CH2C(O)-O-CH2CH3, R^2 is CH3.] | 0.39 µg/mL | > 100 µg/mL | 6.2 µg/mL | > 100 µg/mL | 0.78 µg/mL | 12.5 µg/mL | 25 µg/mL | 1.56 µg/mL | 25 µg/mL | 25 µg/mL | > 128 µg/mL | 0.25 µg/mL | > 100 µg/mL | 12.5 µg/mL | 12.5 µg/mL | 1.56 µg/mL | 2 µg/mL | 0.25 µg/mL | 12.5 µg/mL | 6.2 µg/mL | MIC [9]: > 100 µg/mL; MIC [10]: 128 µg/mL; MIC [20]: 12.5 µg/mL; MIC [21]: 6.2 µg/mL; MIC [22]: > 100 µg/mL; MIC (Escherichia coli DC-2): > 100 µg/mL; MIC [23]: 6.2 µg/mL |
| CC[C@H]1OC(=O)[C@H](C)C(=O)[C@H](C)[C@@H](O[C@@H]2O[C@H](C)C[C@H](N(C)Cc3cccnc3)[C@H]2O)[C@](C)(OCC=Cc2cnc3ccccc3c2)C[C@@H](C)C(=O)[C@H](C)[C@H]2NC(=O)O[C@@]21C [Example 14, Compound of Formula (II); R is -CH2CH=CH-(3-quinolyl), R^p is H, W is absent, R^w is H, R^1 is CH2-(3-pyridyl), R^2 is CH3] | 0.05 µg/mL | > 100 µg/mL | 0.39 µg/mL | > 100 µg/mL | 0.05 µg/mL | 0.39 µg/mL | 0.78 µg/mL | 0.2 µg/mL | 0.2 µg/mL | 0.39 µg/mL | > 128 µg/mL | 0.03 µg/mL | > 100 µg/mL | 0.39 µg/mL | 0.39 µg/mL | 0.05 µg/mL | 0.25 µg/mL | 0.03 µg/mL | 0.39 µg/mL | 0.05 µg/mL | MIC [9]: 50 µg/mL; MIC [20]: 0.39 µg/mL; MIC [21]: 0.39 µg/mL; MIC [22]: > 100 µg/mL; MIC (Escherichia coli DC-2): > 100 µg/mL; MIC [23]: 0.39 µg/mL |

Source: patent publication EP1025114B1, “3'-N-MODIFIED 6-O-SUBSTITUTED ERYTHROMYCIN KETOLIDE DERIVATIVES HAVING ANTIBACTERIAL ACTIVITY” (priority 1997, dated 1999)
